Measurements published in patent publication US12616192B2, “Compositions and methods for preserving or increasing platelet function” (Washington University, priority 2021, dated 2026).
Like-named read-outs stand apart in the source and are kept apart here.

Tests used:
platelets [1] = conditions: cited from earlier work
platelets [2] = conditions: in vitro taurine addition; cited from earlier work
[3] = test system: platelet concentrates (CS-PLT); test: occlusive clot formation in a collagen-coated stenotic microfluidic chamber (microfluidic model of occlusion); type: cell-based; conditions: for time to occlude the microfluidic channel versus non-supplemented CS-PLT: 500 μM taurine at the beginning of storage
Description: Next, the ability of the platelet concentrates to form an occlusive clot against an arterial pressure head in a stenotic microfluidic chamber coated with collagen was analyzed (FIG. 2). The important variable/metric extracted from this platelet function is the occlusion area under the curve, or OAUC; a larger OAUC implies faster and more robust occlusion, and thus improved hemostatic platelet function.
To determine if this was the case, experiments were performed to supplement CS-PLT with taurine during storage, with the hypothesis that the supplemental (or “extra”) taurine would lead to inhibition of aggregation, as similar to the aforementioned reports from the literature. Next, the platelet concentrates were supplemented at the beginning of storage with 500 μM taurine, and assayed for alterations in function using a microfluidic model of occlusion.

platelets [4] = conditions: rats fed taurine; cited from earlier work

SMILES: NCCS(=O)(=O)O [taurine, 2-aminoethanesulfonic acid]
- ex vivo platelet aggregation (platelets [1]; 1989 study, taurine supplementation in humans): reduced aggregation
- ex vivo platelet aggregation (platelets [1]; 2010 study, healthy human donors that drank taurine-containing solutions): increased ex vivo aggregation
- platelet aggregation (platelets [2]): inhibit platelet aggregation
- platelet aggregation (shift of occlusion curves, OAUC) ([3]; CS-PLT supplemented with 500 μM taurine at the beginning of storage (TaurSTORAGE)): increased platelet aggregation
- time to occlude the microfluidic channel versus non-supplemented CS-PLT ([3]; D7 CS-PLT): half of the time
- time to occlude the microfluidic channel versus non-supplemented CS-PLT ([3]; D14 CS-PLT): half of the time
- occlusion curve phenotype ([3]; D14 non-supplemented CS-PLT, exogenous taurine 500 μM added just prior to assessment (TaurASSAY)): middle phenotype
- hemostatic function under physiologically relevant flow ([3]; taurine supplementation during platelet concentrate storage): robustly increases hemostatic function
- ex vivo platelet aggregation (platelets [4]): reduced platelet aggregation
